From the supplement of paper PMC11451515

Test system: P12-Ichikawa
Assay: cell viability relative to DMSO control; higher = less cytotoxic
Settings: 48 h
Method in brief: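 Library compounds in DMSO were pin-dosed in an 11-point threefold series (47 μM to 0.79 nM) onto leukemia cells in 1536-well plates (5 μl). Plates held 500 cells/well of NOMO1 or SEM or 1000 cells/well of P12-Ichikawa, each adapted for at least four passages in each medium. Luminescence was read with CellTiter-Glo One after 48 h at 37°C. Viability means the per-plate percentage relative to DMSO wells, using cell-free wells as background.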

[1] = HPLM + 10% dialyzed FBS, 0.000781 µM
[2] = HPLM + 10% dialyzed FBS, 0.00234 µM
[3] = HPLM + 10% dialyzed FBS, 0.00702 µM
[4] = HPLM + 10% dialyzed FBS, 0.0211 µM
[5] = HPLM + 10% dialyzed FBS, 0.0632 µM
[6] = HPLM + 10% dialyzed FBS, 0.19 µM
[7] = HPLM + 10% dialyzed FBS, 0.569 µM
[8] = HPLM + 10% dialyzed FBS, 1.71 µM
[9] = HPLM + 10% dialyzed FBS, 5.12 µM
[10] = HPLM + 10% dialyzed FBS, 15.4 µM
[11] = HPLM + 10% dialyzed FBS, 46.1 µM
[12] = RPMI 5 mM glucose + 10% FBS, 0.000781 µM
[13] = RPMI 5 mM glucose + 10% FBS, 0.00234 µM
[14] = RPMI 5 mM glucose + 10% FBS, 0.00702 µM
[15] = RPMI 5 mM glucose + 10% FBS, 0.0211 µM
[16] = RPMI 5 mM glucose + 10% FBS, 0.0632 µM
[17] = RPMI 5 mM glucose + 10% FBS, 0.19 µM
[18] = RPMI 5 mM glucose + 10% FBS, 0.569 µM
[19] = RPMI 5 mM glucose + 10% FBS, 1.71 µM
[20] = RPMI 5 mM glucose + 10% FBS, 5.12 µM
[21] = RPMI 5 mM glucose + 10% FBS, 15.4 µM
[22] = RPMI 5 mM glucose + 10% FBS, 46.1 µM
[23] = RPMI 5 mM glucose + 10% dialyzed FBS, 0.000781 µM
[24] = RPMI 5 mM glucose + 10% dialyzed FBS, 0.00234 µM
[25] = RPMI 5 mM glucose + 10% dialyzed FBS, 0.00702 µM
[26] = RPMI 5 mM glucose + 10% dialyzed FBS, 0.0211 µM
[27] = RPMI 5 mM glucose + 10% dialyzed FBS, 0.0632 µM
[28] = RPMI 5 mM glucose + 10% dialyzed FBS, 0.19 µM
[29] = RPMI 5 mM glucose + 10% dialyzed FBS, 0.569 µM
[30] = RPMI 5 mM glucose + 10% dialyzed FBS, 1.71 µM
[31] = RPMI 5 mM glucose + 10% dialyzed FBS, 5.12 µM
[32] = RPMI 5 mM glucose + 10% dialyzed FBS, 15.4 µM
[33] = RPMI 5 mM glucose + 10% dialyzed FBS, 46.1 µM

SMILES	cell viability [1]	cell viability [2]	cell viability [3]	cell viability [4]	cell viability [5]	cell viability [6]	cell viability [7]	cell viability [8]	cell viability [9]	cell viability [10]	cell viability [11]	cell viability [12]	cell viability [13]	cell viability [14]	cell viability [15]	cell viability [16]	cell viability [17]	cell viability [18]	cell viability [19]	cell viability [20]	cell viability [21]	cell viability [22]	cell viability [23]	cell viability [24]	cell viability [25]	cell viability [26]	cell viability [27]	cell viability [28]	cell viability [29]	cell viability [30]	cell viability [31]	cell viability [32]	cell viability [33]
C[S+](=O)([O-])N(Cc1ccco1)CC(O)Cn1c2ccccc2c2ccccc21 (stereo not given)	94.2%	88.9%	94.2%	99.9%	96.3%	98.8%	94.8%	89.8%	89.3%	85.8%	56.6%	92%	94%	92%	89.2%	97.7%	99.2%	91.9%	83.6%	76.4%	79.2%	42.1%	86%	90.7%	97%	97.1%	94.4%	87.1%	81.3%	88.8%	85.7%	73.4%	41.7%
C[C@@H]1CN[C@H]2[C@@H](C)[C@@]\3(CC[C@H]\4[C@@H]5C/C=C6/C[C@@H](O)CC[C@]6(C)[C@H]5CC4=C3C)O[C@@H]2C1	–	–	–	–	–	–	–	–	–	–	–	–	–	–	–	–	–	–	–	–	–	–	119%	125%	123%	121%	124%	115%	114%	114%	109%	101%	93.1%
O=C(Nc1cccc(Nc2ncc(Br)c(NCCc3cnc[nH]3)n2)c1)N1CCCC1	–	–	–	–	–	–	–	–	–	–	–	98%	103%	110%	90.7%	88.1%	79.7%	34.5%	15.2%	18.8%	33.5%	3.48%	111%	104%	107%	103%	99.5%	92.6%	95.1%	20.3%	27.2%	34.6%	9.06%
CCC1(c2ccc(N)cc2)CCC(=O)NC1=O (stereo not given)	116%	113%	109%	111%	121%	110%	109%	98.2%	101%	96.7%	91.7%	125%	120%	120%	111%	110%	115%	114%	98.9%	102%	109%	106%	115%	116%	114%	116%	109%	108%	104%	96.4%	93.6%	97.9%	88%
O=C(CO)N1CCC(c2n[nH]c(-c3ccc(Cl)cc3)c2-c2ccncn2)CC1	119%	104%	113%	112%	113%	109%	105%	100%	97.7%	55.7%	68.4%	117%	112%	118%	122%	114%	113%	114%	110%	87.8%	24%	58.5%	122%	116%	114%	116%	117%	114%	113%	101%	97.7%	21.7%	55.4%
OCc1ccc(-c2nn(Cc3ccccc3)c3ccccc23)o1	118%	109%	103%	107%	113%	108%	104%	93.8%	96.5%	105%	73.7%	117%	119%	128%	126%	113%	115%	117%	104%	116%	113%	60.9%	109%	110%	108%	112%	100%	108%	113%	103%	102%	98.9%	49.5%
CC(=O)OCC(=O)[C@@]12\N=C(C)/O[C@@H]1C[C@H]3[C@@H]4CCC/5=C/C(=O)/C=C\[C@]5(C)[C@H]4[C@@H](O)C[C@]23C	103%	111%	108%	113%	103%	114%	108%	105%	80.6%	73%	63.9%	102%	123%	116%	114%	85.1%	115%	115%	94.1%	85.5%	62.8%	55%	93.6%	102%	112%	107%	104%	111%	102%	86.9%	67.2%	57.7%	49.4%
C\C1=C\N([C@H]2C[C@H](N=[N+]=[N-])[C@@H](CO)O2)C(=O)NC1=O	101%	108%	107%	120%	111%	111%	111%	120%	115%	23.2%	15.1%	99.8%	120%	122%	111%	116%	116%	121%	121%	119%	34.4%	25.3%	97.1%	109%	112%	101%	113%	111%	116%	110%	103%	79.9%	62%
O=C(/C=C/c1c(C(=O)[O-])[nH]c2cc(Cl)cc(Cl)c12)Nc1ccccc1	106%	111%	105%	103%	116%	114%	115%	116%	113%	111%	109%	98%	105%	107%	106%	108%	110%	112%	120%	104%	107%	106%	103%	99.5%	107%	110%	107%	108%	103%	107%	66.2%	108%	113%
CC(=O)CC(C1=CC=CC=C1)C/2=C(O)/C3=CC=CC=C3OC2=O (stereo not given)	106%	112%	108%	117%	111%	125%	123%	120%	113%	118%	123%	105%	120%	130%	128%	130%	132%	132%	127%	128%	132%	124%	106%	122%	116%	125%	128%	127%	125%	121%	132%	132%	129%
CC(C)n1nc(-c2ccc3oc(N)nc3c2)c2c(N)ncnc21	95.5%	91%	86.3%	79.7%	78%	75%	68.7%	67.2%	66.7%	59.9%	44.5%	74.4%	71.5%	64.1%	61.5%	52%	54.4%	51%	46.8%	41.4%	37.2%	31.3%	82.5%	78.9%	67.1%	59.1%	61.7%	53.8%	45%	47.3%	41.5%	35.6%	32%
CC(C)[C@@H](C[S+](=O)([O-])C(C)C)N1C(=O)[C@@](C)(CC(=O)O)C[C@H](c2cccc(Cl)c2)[C@H]1c1ccc(Cl)cc1	109%	103%	108%	106%	113%	71.2%	17.2%	14%	15.4%	17.7%	15.6%	109%	111%	114%	114%	120%	107%	63.3%	50.6%	21.7%	11.7%	12.1%	119%	117%	120%	123%	122%	112%	81.2%	59.7%	25.7%	18.1%	21.1%
Cc1nccn1CC1CCc2c(c3ccccc3n2C)C1=O (stereo not given)	124%	125%	121%	128%	127%	127%	111%	106%	103%	112%	108%	–	–	–	–	–	–	–	–	–	–	–	115%	124%	124%	125%	126%	112%	117%	118%	116%	114%	105%
Cc1cccc(C#Cc2ccccc2)n1	120%	128%	124%	124%	125%	122%	112%	121%	113%	117%	105%	–	–	–	–	–	–	–	–	–	–	–	–	–	–	–	–	–	–	–	–	–	–
Cc1c(Cn2c(C)nc3c(C(=O)O)cc(N4CCOCC4)cc32)cccc1C(F)(F)F	102%	109%	107%	116%	115%	108%	120%	106%	104%	110%	87.8%	98.6%	100%	108%	115%	111%	102%	113%	109%	99.5%	89.2%	94.2%	92.9%	112%	109%	122%	115%	106%	119%	111%	96.9%	107%	100%
CC1(C)OC2CC3C4CC(F)C/5=C/C(=O)/C=C\C5(C)C4C(O)CC3(C)[C@@]2(O1)C(=O)CO (stereo not given in full)	110%	117%	114%	115%	107%	94.9%	78%	73.8%	71.6%	72.5%	70.7%	–	–	–	–	–	–	–	–	–	–	–	115%	119%	117%	102%	94.4%	76.6%	61.4%	52.1%	50.8%	45.9%	49%
O=C(/C=C/c1cccc([S+](=O)([O-])Nc2ccccc2)c1)NO	115%	115%	125%	119%	129%	129%	126%	101%	20.8%	7.58%	7.44%	–	–	–	–	–	–	–	–	–	–	–	–	–	–	–	–	–	–	–	–	–	–
Clc1cc(Cl)cc(CNc2ncncc2-c2ccc3c(c2)OCO3)c1	93.7%	93.6%	92.6%	97.4%	100%	90.3%	93.8%	97.5%	92.6%	94%	10.4%	97.6%	92.7%	91.3%	93.8%	96.3%	93.1%	86.6%	94.2%	89.9%	86%	47.2%	87.6%	96.6%	102%	96.1%	95.1%	91.7%	92.7%	102%	97.9%	99%	61.1%
